Test results published in ChEMBL document CHEMBL4602605, “Fluoroquinolones structural and medicinal developments (2013-2018): Where are we now?” (Bioorg Med Chem, 2019).
Converted amounts (≈) assume the structure as drawn.

How the values were obtained:
Type in all cases: functional
Enterococcus faecium = test: Antimicrobial activity against Enterococcus faecium ATCC 700221 incubated for 18 to 24 hrs by two-fold serial dilution method
[1] = test system: Staphylococcus epidermidis; test: Antimicrobial activity against methicillin-susceptible Staphylococcus epidermidis ATCC 12228 incubated for 18 to 24 hrs by two-fold serial dilution method
[2] = test system: Mycobacterium tuberculosis; test: Antimicrobial activity against Mycobacterium tuberculosis H37Rv ATCC 27294 incubated for 7 days by microplate Alamar blue assay; details: H37Rv ATCC 27294, 168 h
Staphylococcus aureus [3] = test: Antimicrobial activity against methicillin-susceptible Staphylococcus aureus ATCC 29213 incubated for 18 to 24 hrs by two-fold serial dilution method
Staphylococcus aureus [4] = test: Antimicrobial activity against methicillin-resistant Staphylococcus aureus ATCC 33591 incubated for 18 to 24 hrs by two-fold serial dilution method
Escherichia coli = test: Antimicrobial activity against tolC deficient Escherichia coli KD65 by CLSI-based broth microdilution method
Staphylococcus aureus [5] = test: Antimicrobial activity against Staphylococcus aureus ATCC 29213 by CLSI-based broth microdilution method
Pseudomonas aeruginosa = test: Antimicrobial activity against Pseudomonas aeruginosa PAO1 by CLSI-based broth microdilution method
[6] = Escherichia coli, KD65, read-out: MIC
[7] = Staphylococcus aureus, ATCC 29213, read-out: MIC

Compound	MIC (Enterococcus faecium)	MIC [1]	MIC [2]	MIC (Staphylococcus aureus [3])	MIC (Staphylococcus aureus [4])	MIC (Escherichia coli; [6])	MIC (Staphylococcus aureus [5]; [7])	MIC (Pseudomonas aeruginosa)	MIC (Escherichia coli)	MIC (Staphylococcus aureus [5])
COc1ccc(C(=O)N/N=C(\C)CN2CCN(c3c(F)cc4c(=O)c(C(=O)O)cn(C5CC5)c4c3OC)CC2)cc1	64 µg/mL (≈ 113 µM)	0.125 µg/mL (≈ 0.221 µM)	0.214 µM (≈ 0.121 µg/mL)	0.125 µg/mL (≈ 0.221 µM)	0.25 µg/mL (≈ 0.442 µM)					
COc1c(N2CCN(C/C(C)=N/Nc3ccc(Cl)cc3)CC2)c(F)cc2c(=O)c(C(=O)O)cn(C3CC3)c12	64 µg/mL (≈ 118 µM)	0.125 µg/mL (≈ 0.231 µM)	0.433 µM (≈ 0.235 µg/mL)	0.06 µg/mL (≈ 0.111 µM)	0.06 µg/mL (≈ 0.111 µM)					
COc1c(N2CCN(C/C(C)=N/NC(=O)c3ccc(Cl)cc3)CC2)c(F)cc2c(=O)c(C(=O)O)cn(C3CC3)c12	32 µg/mL (≈ 56.1 µM)	0.125 µg/mL (≈ 0.219 µM)	0.272 µM (≈ 0.155 µg/mL)	0.125 µg/mL (≈ 0.219 µM)	0.125 µg/mL (≈ 0.219 µM)					
N[C@@H]1CCN2c3c(F)cc4c(=O)c(C(=O)O)cn(C5CC5)c4c3C=C[C@H]12						1 µg/mL (≈ 2.81 µM)	8 µg/mL (≈ 22.5 µM)	> 64 µg/mL		
COc1c(N2CCN(C/C(C)=N/Nc3nc4ccccc4s3)CC2)c(F)cc2c(=O)c(C(=O)O)cn(C3CC3)c12	64 µg/mL (≈ 113 µM)	0.5 µg/mL (≈ 0.886 µM)	0.313 µM (≈ 0.177 µg/mL)	0.25 µg/mL (≈ 0.443 µM)	0.5 µg/mL (≈ 0.886 µM)					
COc1c(N2CCN(C/C(C)=N/Nc3nc4ccccc4[nH]3)CC2)c(F)cc2c(=O)c(C(=O)O)cn(C3CC3)c12	128 µg/mL (≈ 234 µM)	1 µg/mL (≈ 1.83 µM)	0.434 µM (≈ 0.238 µg/mL)	1 µg/mL (≈ 1.83 µM)	1 µg/mL (≈ 1.83 µM)					
COc1c(N2CCN(C/C(C)=N/Nc3ccnc4cc(Cl)ccc34)CC2)c(F)cc2c(=O)c(C(=O)O)cn(C3CC3)c12	> 128 µg/mL	1 µg/mL (≈ 1.69 µM)	0.266 µM (≈ 0.158 µg/mL)	0.5 µg/mL (≈ 0.843 µM)	0.5 µg/mL (≈ 0.843 µM)					
N[C@@H]1CCN2c3c(F)cc4c(=O)c(C(=O)O)cn(C5CC5)c4c3/C=C\CC[C@H]12						0.25 µg/mL (≈ 0.652 µM)	4 µg/mL (≈ 10.4 µM)	32 µg/mL (≈ 83.5 µM)		
N[C@@H]1CCN2c3c(F)cc4c(=O)c(C(=O)O)cn(C5CC5)c4c3SC[C@H]12						0.03 µg/mL (≈ 0.0799 µM)	0.125 µg/mL (≈ 0.333 µM)	4 µg/mL (≈ 10.7 µM)		
COc1c(N2CCN(C/C(C)=N/Nc3ccc(C(F)(F)F)cc3)CC2)c(F)cc2c(=O)c(C(=O)O)cn(C3CC3)c12	64 µg/mL (≈ 111 µM)	0.25 µg/mL (≈ 0.434 µM)	0.394 µM (≈ 0.227 µg/mL)	0.125 µg/mL (≈ 0.217 µM)	0.125 µg/mL (≈ 0.217 µM)					
COc1c(N2CCN(C/C(C)=N/Nc3ccccc3)CC2)c(F)cc2c(=O)c(C(=O)O)cn(C3CC3)c12	64 µg/mL (≈ 126 µM)	0.25 µg/mL (≈ 0.493 µM)	0.398 µM (≈ 0.202 µg/mL)	0.25 µg/mL (≈ 0.493 µM)	0.25 µg/mL (≈ 0.493 µM)					
COc1c(N2CCN(C/C(C)=N/Nc3ccccn3)CC2)c(F)cc2c(=O)c(C(=O)O)cn(C3CC3)c12	64 µg/mL (≈ 126 µM)	0.125 µg/mL (≈ 0.246 µM)	0.372 µM (≈ 0.189 µg/mL)	0.125 µg/mL (≈ 0.246 µM)	0.125 µg/mL (≈ 0.246 µM)					
COc1c(N2CCN(C/C(C)=N/NC(=O)c3ccccc3)CC2)c(F)cc2c(=O)c(C(=O)O)cn(C3CC3)c12	> 128 µg/mL	0.125 µg/mL (≈ 0.233 µM)	0.226 µM (≈ 0.121 µg/mL)	0.125 µg/mL (≈ 0.233 µM)	0.125 µg/mL (≈ 0.233 µM)					
N[C@@H]1CCN2c3c(F)cc4c(=O)c(C(=O)O)cn(C5CC5)c4c3CC[C@H]12						0.004 µg/mL (≈ 0.0112 µM)	0.03 µg/mL (≈ 0.0839 µM)	0.5 µg/mL (≈ 1.4 µM)		
COc1cccc(N/N=C(\C)CN2CCN(c3c(F)cc4c(=O)c(C(=O)O)cn(C5CC5)c4c3OC)CC2)c1	> 64 µg/mL	0.25 µg/mL (≈ 0.465 µM)	0.434 µM (≈ 0.233 µg/mL)	0.125 µg/mL (≈ 0.233 µM)	0.125 µg/mL (≈ 0.233 µM)					
COc1c(N2CCN(C/C(C)=N/NC(=O)c3ccc(F)cc3)CC2)c(F)cc2c(=O)c(C(=O)O)cn(C3CC3)c12	> 64 µg/mL	0.125 µg/mL (≈ 0.226 µM)	0.266 µM (≈ 0.147 µg/mL)	0.125 µg/mL (≈ 0.226 µM)	0.125 µg/mL (≈ 0.226 µM)					
COc1c(N2CCN(C/C(C)=N/Nc3ccc(F)cc3)CC2)c(F)cc2c(=O)c(C(=O)O)cn(C3CC3)c12	32 µg/mL (≈ 60.9 µM)	0.125 µg/mL (≈ 0.238 µM)	0.215 µM (≈ 0.113 µg/mL)	0.125 µg/mL (≈ 0.238 µM)	0.125 µg/mL (≈ 0.238 µM)					
COc1c(N2CCN(C/C(C)=N/Nc3ccc(F)c(Cl)c3)CC2)c(F)cc2c(=O)c(C(=O)O)cn(C3CC3)c12	64 µg/mL (≈ 114 µM)	0.125 µg/mL (≈ 0.223 µM)	0.396 µM (≈ 0.222 µg/mL)	0.125 µg/mL (≈ 0.223 µM)	0.125 µg/mL (≈ 0.223 µM)					
COc1c(N2CCN(C/C(C)=N/Nc3ccncc3)CC2)c(F)cc2c(=O)c(C(=O)O)cn(C3CC3)c12	> 64 µg/mL	2 µg/mL (≈ 3.93 µM)	1.78 µM (≈ 0.905 µg/mL)	2 µg/mL (≈ 3.93 µM)	2 µg/mL (≈ 3.93 µM)					
COc1c(N2CCN(CCn3cncn3)CC2)c(F)cc2c(=O)c(C(=O)O)cn(C3CC3)c12	> 128 µg/mL	4 µg/mL (≈ 8.76 µM)	4.1 µM (≈ 1.87 µg/mL)	4 µg/mL (≈ 8.76 µM)	4 µg/mL (≈ 8.76 µM)					
COc1c(N2CCN(C/C(C)=N/NC(=O)c3ccc(O)cc3)CC2)c(F)cc2c(=O)c(C(=O)O)cn(C3CC3)c12	64 µg/mL (≈ 116 µM)	0.06 µg/mL (≈ 0.109 µM)	0.21 µM (≈ 0.116 µg/mL)	0.125 µg/mL (≈ 0.227 µM)	0.06 µg/mL (≈ 0.109 µM)					
COc1c(N2CCN(CCn3c([N+](=O)[O-])cnc3C)CC2)c(F)cc2c(=O)c(C(=O)O)cn(C3CC3)c12	> 128 µg/mL	1 µg/mL (≈ 1.94 µM)	1.72 µM (≈ 0.885 µg/mL)	1 µg/mL (≈ 1.94 µM)	1 µg/mL (≈ 1.94 µM)					
COc1c(N2CCN(CCCn3cc([N+](=O)[O-])nc3C)CC2)c(F)cc2c(=O)c(C(=O)O)cn(C3CC3)c12	> 64 µg/mL	32 µg/mL (≈ 60.5 µM)	60.3 µM (≈ 31.9 µg/mL)	32 µg/mL (≈ 60.5 µM)	32 µg/mL (≈ 60.5 µM)					
N[C@@H]1CCN2c3c(F)cc4c(=O)c(C(=O)O)cn(C5CC5)c4c3CNC[C@H]12						0.25 µg/mL (≈ 0.671 µM)	1 µg/mL (≈ 2.69 µM)	16 µg/mL (≈ 43 µM)		
COc1c(N2CCN(C/C(C)=N/NC(=O)c3ccc([N+](=O)[O-])cc3)CC2)c(F)cc2c(=O)c(C(=O)O)cn(C3CC3)c12	128 µg/mL (≈ 220 µM)	0.125 µg/mL (≈ 0.215 µM)	0.294 µM (≈ 0.171 µg/mL)	0.25 µg/mL (≈ 0.431 µM)	0.25 µg/mL (≈ 0.431 µM)					
O=C(O)c1cn(C2CC2)c2c3c(c(F)cc2c1=O)N1CCCC1C[S+]([O-])C3 (stereo in doubt; 440)								> 16 µg/mL	16 µg/mL (≈ 41 µM)	1 µg/mL (≈ 2.56 µM)
